Experimental data published in ChEMBL document CHEMBL4152339, “Design and synthesis of novel 1H-tetrazol-5-amine based potent antimicrobial agents: DNA topoisomerase IV and gyrase affinity evaluation supported by molecular docking studies” (Eur J Med Chem, 2018).
Converted amounts (≈) assume the structure as drawn.

Assay: Inhibition of Staphylococcus aureus DNA topoisomerase 4 using Kinetoplast DNA as substrate after 30 mins by ethidium bromide staining based agarose gel electrophoresis method

IC50: 1.7 µg/mL (≈ 5.13 µM)
Compound: O=C(O)c1cn(C2CC2)c2cc(N3CCNCC3)c(F)cc2c1=O [CIPROFLOXACIN]
